Results published in US8845879B2 (priority 2010, dated 2014).
Read-outs that look alike come from different tables or passages of the source.

Columns and labels:
[1] = system: mitochondria isolated from Saccharomyces cerevisiae; format: biochemical
[2] = system: immobilized mouse liver mitochondria; format: biochemical
[3] = before vs after overnight soak at 4° C. in pesticide solution, average ± standard deviation

For `CCOP(=S)(OCC)Oc1ccc([N+](=O)[O-])cc1` [Parathion], the “change in peak area (ΔAh)” value [1, 3] was −2.721E−05 ± 9.349E−06 C and the “change in peak height (Δip)” value [1, 3] was −4.491E−07 ± 2.512E−07 A.

For `C[n+]1ccc(-c2cc[n+](C)cc2)cc1` [Paraquat], the “change in peak area (ΔAh)” value [1] was −3.690E−05 ± 1.109E−05 C and the “change in peak height (Δip)” value [1] was −8.582E−07 ± 1.870E−07 A.

In the case of `CC1=NS(=O)(=O)c2cc(Cl)ccc2N1` [diazoxide], the “inhibition of mitochondrial function (in words)” value (“inhibition” below) [2] is reported as “partial inhibition”.

`C=C(C)[C@H]1Cc2c(ccc3c2O[C@@H]2COc4cc(OC)c(OC)cc4[C@@H]2C3=O)O1` [rotenone] was tested, and the “inhibition” value [2] was “strong inhibitory response”.

With `O=C(O)c1ccccc1O` [Salicylic acid] the “change in current after treatment (in words)” value [2] was “not statistically significant” and the “higher metabolic energy flux than untreated mitochondria” value [2] was 18.6±1.5%.

With `CC1(C)C(C=C(Cl)Cl)C1C(=O)OCc1cccc(Oc2ccccc2)c1` (stereo not drawn) [Permethrin] the “change in peak area (ΔAh)” value [1] was −6.597E−05 ± 1.238E−05 C and the “change in peak height (Δip)” value [1] was −1.015E−06 ± 2.065E−07 A.

`CC[C@H]1/C=C/C=C/C[C@@H](C)[C@H](O)[C@@](C)(O)C(=O)[C@@H](C)[C@H](O)[C@@H](C)C(=O)[C@@H](C)[C@H](O)[C@@H](C)/C=C/C(=O)O[C@@H]2[C@H](C)[C@H](CC1)O[C@]1(CC[C@H](C)[C@H](C[C@@H](C)O)O1)[C@H]2C` [oligomycin] was tested, and the “attenuation (decrease) in current” value [2] was 36.5±3.7% and the “attenuation in metabolic energy conversion” value [2] was 60.9±1.0%.

With `O=C(O)COc1ccc(Cl)cc1Cl` [2,4-D, 2,4-Dichlorophenoxyacetic acid] the “change in peak area (ΔAh)” value [1] was −8.237E−05 ± 1.713E−05 C and the “change in peak height (Δip)” value [1] was −1.617E−06 ± 5.286E−07 A.

With antimycin the “inhibition” value [2] was “strong inhibitory response”.

With `CCNc1nc(Cl)nc(NC(C)C)n1` [Atrazine] the “change in peak area (ΔAh)” value [1] was −6.809E−05 ± 1.708E−05 C and the “change in peak height (Δip)” value [1] was −8.290E−07 ± 2.197E−07 A.

With `COc1ccc2nc([S@@+]([O-])Cc3ncc(C)c(OC)c3C)[nH]c2c1` [Esomeprazole] the attenuated current [2] was 16.8±6.4%, the “attenuation (decrease) in current” value [2] was 1.7±10.3% and the “attenuation in metabolic energy conversion” value [2] was 19.9±7.6%. For the same compound, the “attenuation in metabolic energy production” value [2] was 58.8±11.1%.
